Results from the supplement of paper PMC10307832.

Experiments:
Assay in all cases: relative viability (nuclei count vs DMSO), 5 days (fraction); higher = more cells survive
ALW-II-49-7 + Bortezomib = compound: Cc1ccc(C(=O)Nc2cccc(C(F)(F)F)c2)cc1Nc1cncc(C(N)=O)c1 [ALW-II-49-7] + CC(C)C[C@H](NC(=O)[C@H](Cc1ccccc1)NC(=O)c1cnccn1)B(O)O [Bortezomib] (partner 0.002 µM)
Summary of the method: (§1)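 Cells from lung cancer lines were seeded into 1536-well plates and, one day later, dosed by pin tool. Treatments were either a single drug or a fixed dose of an anchor drug with five library-drug doses (not always all listed) in √10 steps. After 5 days, nuclei were stained in a one-step fixation (final 0.05% Triton X-100, 1% formaldehyde, 1 ug/ml Hoechst) and counted on 4× images, and relative viability is the treated-to-vehicle nuclei ratio, as the median of duplicate plates.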

ALW-II-49-7 + Luminespib = compound: Cc1ccc(C(=O)Nc2cccc(C(F)(F)F)c2)cc1Nc1cncc(C(N)=O)c1 [ALW-II-49-7] + CCNC(=O)c1noc(-c2cc(C(C)C)c(O)cc2O)c1-c1ccc(CN2CCOCC2)cc1 [Luminespib] (partner 0.01 µM)
Summary of the method: as §1

XMD13-2 + Luminespib = compound: C1CC1C(=O)NC2=NNC3=C2C=CC(=C3)C4=CC(=CC=C4)C(=O)NC5CC5 [XMD13-2] + CCNC(=O)c1noc(-c2cc(C(C)C)c(O)cc2O)c1-c1ccc(CN2CCOCC2)cc1 [Luminespib] (partner 0.01 µM)
Summary of the method: as §1

Dasatinib + Vorinostat = compound: Cc1nc(Nc2ncc(C(=O)Nc3c(C)cccc3Cl)s2)cc(N2CCN(CCO)CC2)n1 [Dasatinib] + O=C(CCCCCCC(=O)Nc1ccccc1)NO [Vorinostat] (partner 1 µM)
Summary of the method: as §1

Cell Line | relative viability (ALW-II-49-7 + Bortezomib; first compound 0.08 µM) | relative viability (ALW-II-49-7 + Bortezomib; first compound 0.253 µM) | relative viability (ALW-II-49-7 + Bortezomib; first compound 0.8 µM) | relative viability (ALW-II-49-7 + Bortezomib; first compound 2.53 µM) | relative viability (ALW-II-49-7 + Bortezomib; first compound 8 µM) | relative viability (ALW-II-49-7 + Luminespib; first compound 0.08 µM) | relative viability (ALW-II-49-7 + Luminespib; first compound 0.253 µM) | relative viability (ALW-II-49-7 + Luminespib; first compound 0.8 µM) | relative viability (ALW-II-49-7 + Luminespib; first compound 2.53 µM) | relative viability (ALW-II-49-7 + Luminespib; first compound 8 µM) | relative viability (XMD13-2 + Luminespib; first compound 0.05 µM) | relative viability (XMD13-2 + Luminespib; first compound 0.1581 µM) | relative viability (XMD13-2 + Luminespib; first compound 0.5 µM) | relative viability (XMD13-2 + Luminespib; first compound 1.581 µM) | relative viability (XMD13-2 + Luminespib; first compound 5 µM) | relative viability (Dasatinib + Vorinostat; first compound 0.005 µM) | relative viability (Dasatinib + Vorinostat; first compound 0.01581 µM) | relative viability (Dasatinib + Vorinostat; first compound 0.05 µM) | relative viability (Dasatinib + Vorinostat; first compound 0.1581 µM) | relative viability (Dasatinib + Vorinostat; first compound 0.5 µM)
NCI-H3122 | 1.09 | 1.06 | 1.11 | 1.08 | 1.11 | 0.0922 | 0.0773 | 0.124 | 0.102 | 0.195 | 0.102 | 0.0949 | 0.106 | 0.105 | 0.0867 | 1.04 | 0.949 | 0.986 | 1.02 | 0.614
PC-3 [JPC-3] | 0.746 | 0.777 | 0.758 | 0.862 | 0.825 | 0.669 | 0.698 | 0.636 | 0.548 | 0.772 | 0.681 | 0.661 | 0.64 | 0.776 | 0.782 | 0.86 | 0.953 | 0.787 | 0.522 | 0.475
PC-14 | 0.88 | 0.872 | 0.83 | 0.758 | 0.857 | 0.191 | 0.161 | 0.119 |  | 0.125 | 0.133 | 0.192 | 0.118 | 0.151 | 0.154 | 0.653 | 0.699 | 0.562 | 0.318 | 0.0563
RERF-LC-KJ | 0.861 | 1.36 | 1.06 | 0.813 | 1.14 | 1.56 | 1.18 | 1.68 | 1.39 | 1.15 | 1.32 | 1.29 | 1.22 | 1.14 | 1.1 | 0.667 | 0.602 | 0.585 | 0.491 | 0.416
SK-LU-1 | 0.741 | 1.25 | 1.17 | 1.06 | 0.662 | 0.184 | 0.221 | 0.21 | 0.192 | 0.157 | 0.217 | 0.239 | 0.227 | 0.194 | 0.211 | 0.686 | 0.647 | 0.473 | 0.278 | 0.246
SW 1573 | 1.01 | 0.983 | 1.14 | 1.01 | 0.959 | 0.29 | 0.223 | 0.251 | 0.289 | 0.144 | 0.276 | 0.239 | 0.308 | 0.188 | 0.213 | 0.968 |  | 0.649 | 0.538 | 0.491
